Laboratory results from patent US20200046648A1, “POLYMERIC NANOPARTICLES COMPRISING SALINOMYCIN” (priority 2018, published 2020).
Entries after “also recorded” stand apart in the source; their conditions may differ.

Legend:
CD44+/CD24low cells = test: Flow cytometric identification of cancer stem cells from a TNBC patient; format: cell-based; conditions: TNBC patient tumor derived spheroid cultures; 72 hours; FACS
Experimental: Flow cytometric identification of cancer stem cells (CSCs) by CD24-PE & CD44-FITC antibody staining in triple negative breast cancer (TNBC) patient tumor derived cells cultured as spheroid cultures and then treated with the indicated drugs for72h. Following 72 hours of treatment of the mammospheres, cells were dissociated with Acutase treatment. Following washing, cells were stained with CD24-PE & CD44-FITC antibody, washed and analyzed by FACS. The subpopulation of CD44+/CD24-low cells were gated and quantified.

[1] = Comparative toxicity in wild-type mice; format: in vivo
Experimental: The effect of nanoparticles in mitigating the toxicity of salinomycin was examined in wild-type mice. Different doses of salinomycin alone (5, 7.5, 10, 12.5 and 15 mg/kg) or salinomycin-nanoparticles (SAL-NP) (5, 7.5, 10, 12.5 and 15 mg/kg) were injected into wild-type mice. Three mice were used in each group of salinomycin alone and salinomycin-NP groups, body weights, food and water uptake were measured every day for 22 days.

[2] = Preliminary toxicity study, post mortem observations; format: in vivo, CD2 male mice; conditions: day 7
Experimental: (§1) A study was conducted in wild-type CD2 male mice to evaluate and compare the effects of salinomycin (SAL) at three different concentrations and compared to a formulation of SAL in biodegradable tetra-block polymeric nanoparticles.
(§2) MICE 20-25 g male CD2 mice between the ages 6 to 8 weeks from Taconic were used. The animals were acclimatized for five days before initiating the study.
(§3) Animals were injected intravenously either with 5.0 mg/kg, 8.5 mg/kg, or 12.5 mg/kg of SAL or SAL-NPs once, according to Table 1 below. Control animals were treated with PBS.
(§4) Tolerability of the drug by animals was measured via clinical, weight and behavioral changes. The compounds were administered once on day 1. Seven days following administration, all animals were euthanized and blood was collected for a complete blood chemistry and hematology analysis (see Table 2 and 3 below). Post mortem was conducted to examine all of the animals. Different organs (brain, heart, lung, liver, spleen, stomach, intestine, kidney, and skin) were also isolated for histo-pathological evaluation by H & E staining.
On day 7 of the study, a post mortem inspection was conducted on each and every animal. […] There was slight enlargement observed on the fascia around the testis.

[3] = Preliminary toxicity study, histopathology by H & E staining; format: in vivo, CD2 male mice
Experimental: as §1, §2, §3, §4
All the animals did well in the study, except the Salinomycin 12.5 mg/kg group. The histopathological studies were conducted on brain, heart, lung, liver, spleen, stomach, intestine, kidney, muscles, and skin tissues by H & E staining. […]

Structure (SMILES) | effect on CD44+/CD24low cells (CD44+/CD24low cells) | survival ([1]; 10 mg/kg) | survival ([1]; 12.5 mg/kg) | survival (day of the study) ([1]; 15 mg/kg) | Post-mortem findings ([2]; 5 mg/kg i.v. once) | Post-mortem findings ([2]; 8.5 mg/kg i.v. once) | Post-mortem findings ([2]; 12.5 mg/kg i.v. once) | organ toxicity (conclusion) ([3]; 5, 8.5, 12.5 mg/kg i.v. once, day 7) | microscopical examination of all the tissues ([3]; mouse, in vivo)
CC(=O)O[C@H]1C(=O)[C@@]2(C)[C@H]([C@H](OC(=O)c3ccccc3)[C@]3(O)C[C@H](OC(=O)[C@H](O)[C@@H](NC(=O)c4ccccc4)c4ccccc4)C(C)=C1C3(C)C)[C@]1(OC(C)=O)CO[C@@H]1C[C@@H]2O [Paclitaxel] | not much effect | – | – | – | – | – | – | – | –
CC[C@@H](C(=O)[C@@H](C)[C@@H](O)[C@H](C)[C@@H]1O[C@@H]([C@@H](CC)C(=O)O)CC[C@@H]1C)[C@H]1O[C@]2(C=C[C@@H](O)[C@]3(CC[C@@](C)([C@H]4CC[C@](O)(CC)[C@H](C)O4)O3)O2)[C@H](C)C[C@@H]1C [SAL, salinomycin] | – | five | three | died after day 3 | did not show any observable changes; also recorded: No Changes observed | slightly reddish and slightly enlarged testis; also recorded: testis with redness; also recorded: No Changes observed | reddening of the fascia surrounding testis; also recorded: Epidydimus enalrged | toxicity to the liver, kidney, testis, and epididymis | changes were observed in the kidney, liver, testis and epididymis
